According to the supplement of paper PMC10307832:

Columns and labels:
Experiment in all cases: relative viability (nuclei count vs DMSO), 5 days (fraction); higher = more cells survive
KN-93 + Luminespib = compound: CN(C/C=C/C1=CC=C(C=C1)Cl)CC2=CC=CC=C2N(CCO)S(=O)(=O)C3=CC=C(C=C3)OC [KN-93] + CCNC(=O)c1noc(-c2cc(C(C)C)c(O)cc2O)c1-c1ccc(CN2CCOCC2)cc1 [Luminespib] (partner 0.01 µM)
Summary of the method: (§1)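 After 5 days of treatment, lung cancer cells in 1536-well plates were fixed and stained in a single step (final 0.05% Triton X-100, 1% formaldehyde, 1 ug/ml Hoechst) and their nuclei counted on 4× images. Treatment had been applied by pin tool the day after seeding as one drug alone or as a fixed anchor-drug dose with five library-drug doses (not always all listed) in √10 steps. Relative viability is the nuclei count of treated wells divided by that of vehicle wells, and values are medians of duplicate plates.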

KN-93 + Vorinostat = compound: CN(C/C=C/C1=CC=C(C=C1)Cl)CC2=CC=CC=C2N(CCO)S(=O)(=O)C3=CC=C(C=C3)OC [KN-93] + O=C(CCCCCCC(=O)Nc1ccccc1)NO [Vorinostat] (partner 1 µM)
Summary of the method: as §1

KN-93 + Trametinib = compound: CN(C/C=C/C1=CC=C(C=C1)Cl)CC2=CC=CC=C2N(CCO)S(=O)(=O)C3=CC=C(C=C3)OC [KN-93] + CC(=O)Nc1cccc(-n2c(=O)n(C3CC3)c(=O)c3c(Nc4ccc(I)cc4F)n(C)c(=O)c(C)c32)c1 [Trametinib] (partner 0.02 µM)
Summary of the method: as §1

KN-93 + OSI-027 = compound: CN(C/C=C/C1=CC=C(C=C1)Cl)CC2=CC=CC=C2N(CCO)S(=O)(=O)C3=CC=C(C=C3)OC [KN-93] + COc1cccc2cc(-c3nc([C@H]4CC[C@H](C(=O)O)CC4)n4ncnc(N)c34)[nH]c12 [OSI-027] (partner 0.5 µM)
Summary of the method: as §1

KN-93 + AZD7762 = compound: CN(C/C=C/C1=CC=C(C=C1)Cl)CC2=CC=CC=C2N(CCO)S(=O)(=O)C3=CC=C(C=C3)OC [KN-93] + NC(=O)Nc1cc(-c2cccc(F)c2)sc1C(=O)N[C@H]1CCCNC1 [AZD7762] (partner 0.2 µM)
Summary of the method: as §1

Row | Cell Line | relative viability (KN-93 + Luminespib; first compound 0.08 µM) | relative viability (KN-93 + Luminespib; first compound 0.253 µM) | relative viability (KN-93 + Luminespib; first compound 2.53 µM) | relative viability (KN-93 + Luminespib; first compound 8 µM) | relative viability (KN-93 + Vorinostat; first compound 0.08 µM) | relative viability (KN-93 + Vorinostat; first compound 0.253 µM) | relative viability (KN-93 + Vorinostat; first compound 2.53 µM) | relative viability (KN-93 + Vorinostat; first compound 8 µM) | relative viability (KN-93 + Trametinib; first compound 0.08 µM) | relative viability (KN-93 + Trametinib; first compound 0.253 µM) | relative viability (KN-93 + Trametinib; first compound 2.53 µM) | relative viability (KN-93 + Trametinib; first compound 8 µM) | relative viability (KN-93 + OSI-027; first compound 0.08 µM) | relative viability (KN-93 + OSI-027; first compound 0.253 µM) | relative viability (KN-93 + OSI-027; first compound 2.53 µM) | relative viability (KN-93 + OSI-027; first compound 8 µM) | relative viability (KN-93 + AZD7762; first compound 0.08 µM) | relative viability (KN-93 + AZD7762; first compound 0.253 µM) | relative viability (KN-93 + AZD7762; first compound 2.53 µM) | relative viability (KN-93 + AZD7762; first compound 8 µM)
1 | HCC-44 | 1.28 | 1.01 | 1.12 | 0.752 | 1.13 | 1.1 | 1.12 | 0.915 | 1.14 | 0.954 | 1.04 | 0.83 | 0.547 | 0.482 | 0.555 | 0.391 | 1.02 | 0.904 | 1.04 | 0.944
2 | HCC-78 |  |  |  |  | 0.465 | 0.405 | 0.739 | 0.381 | 0.708 | 0.68 | 0.808 | 0.711 | 0.388 | 0.315 | 0.387 | 0.339 | 0.623 | 0.506 | 0.622 | 0.653
3 | HCC-366 |  |  |  |  | 0.301 | 0.251 | 0.514 | 0.168 | 0.258 | 0.305 | 0.336 | 0.162 | 0.758 | 0.696 | 0.894 | 0.235 | 0.269 | 0.221 | 0.286 | 0.0943
4 | HCC-827 | 0.642 | 0.836 | 0.496 | 0.465 | 0.929 | 0.874 | 0.793 | 0.777 | 0.539 | 0.546 | 0.491 | 0.426 | 0.729 | 0.777 | 0.991 | 0.565 | 0.195 | 0.159 | 0.191 | 0.186
5 | IA-LM |  |  |  |  | 0.428 | 1.02 | 0.982 | 1.05 |  |  |  |  |  |  |  |  |  |  |  | 
6 | NCI-H520 | 0.246 | 0.212 | 0.281 | 0.224 | 0.619 | 0.906 | 0.831 | 0.58 | 0.591 | 0.783 | 0.682 | 0.641 | 0.287 | 0.289 | 0.279 | 0.205 |  |  |  | 
7 | NCI-H661 | 0.896 | 1.06 | 0.851 | 0.542 | 0.703 | 0.923 | 0.641 | 0.535 | 0.525 | 0.563 | 0.472 | 0.383 | 0.693 | 0.741 | 0.606 | 0.273 |  |  |  | 
8 | NCI-H1650 | 0.182 | 0.187 | 0.208 | 0.19 | 0.468 | 0.503 | 0.541 | 0.431 | 0.611 | 0.508 | 0.693 | 0.412 | 0.574 | 0.596 | 0.496 | 0.465 |  |  |  | 
9 | NCI-H1703 |  |  |  |  |  |  |  |  |  |  |  |  |  |  |  |  | 0.117 | 0.115 | 0.105 | 0.153
